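Five compound concentrations were applied to cells in 96-well plates for 48 hours; endpoints were derived by simple linear interpolation of the resulting dose-response curve. GI50 is the concentration that inhibits growth by half.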 The source made the active and inactive calls. No stated cut-off is given here; in the data, active = GI50 up to about 1.1 µM and inactive = higher.
Experiments:
Assay in all cases: NCI anticancer screen, dose series, 48 h
[1] = system: MDA-MB-231
[2] = system: MDA-MB-435
[3] = system: Hs-578T
[4] = system: EKVX
[5] = system: SF-539
[6] = system: OVCAR-3
[7] = system: HCC 2998
[8] = system: PC-3
[9] = system: MOLT-4
[10] = system: CAKI-1
[11] = system: UO-31
[12] = system: SN12C
[13] = system: HCT-116
[14] = system: UACC-257
[15] = system: SF-268
[16] = system: SR
[17] = system: TK-10
[18] = system: UACC-62
[19] = system: M14
[20] = system: MCF7
[21] = system: HOP-92
[22] = system: SNB-75
[23] = system: OVCAR-5
[24] = system: T47D
[25] = system: K562
[26] = system: SW-620
[27] = system: NCI/ADR-RES
[28] = system: U-251
[29] = system: IGROV-1
[30] = system: HT-29
[31] = system: LOX IMVI
[32] = system: NCI-H23
[33] = system: A498
[34] = system: SK-OV-3
[35] = system: SF-295
[36] = system: RPMI-8226
[37] = system: HL-60
[38] = system: RXF 393
[39] = system: SNB-19
[40] = system: SK-MEL-5
[41] = system: SK-MEL-2
[42] = system: KM12
[43] = system: 786-0
[44] = system: NCI-H522
[45] = system: ACHN
[46] = system: SK-MEL-28
[47] = system: CCRF-CEM
[48] = system: MDA-N
[49] = system: OVCAR-4
[50] = system: NCI-H460
[51] = system: BT-549
[52] = system: DU-145
[53] = system: HCT-15
[54] = system: OVCAR-8
[55] = system: A549
[56] = system: COLO 205
[57] = system: HOP-62
[58] = system: Malme-3M
[59] = system: NCI-H226

Clc1cc(OC2C3CC4CC(C3)CC2C4)nc(Cl)n1 (centres undefined)
GI50 [1]: 13.7 µM (inactive)
GI50 [2]: 17.4 µM (inactive)
GI50 [3]: 18.9 µM (inactive)
GI50 [4]: 7.29 µM (inactive)
GI50 [5]: 20.7 µM (inactive)
GI50 [6]: 18.1 µM (inactive)
GI50 [7]: 1.96 µM (inactive)
GI50 [8]: 19.2 µM (inactive)
GI50 [9]: 16.9 µM (inactive)
GI50 [10]: 0.723 µM (active)
GI50 [11]: 2.88 µM (inactive)
GI50 [12]: 16.1 µM (inactive)
GI50 [13]: 14.3 µM (inactive)
GI50 [14]: 13.9 µM (inactive)
GI50 [15]: 19.2 µM (inactive)
GI50 [16]: 3.52 µM (inactive)
GI50 [17]: 30.7 µM (inactive)
GI50 [18]: 12.2 µM (inactive)
GI50 [19]: 16.2 µM (inactive)
GI50 [20]: 18.3 µM (inactive)
GI50 [21]: 1.64 µM (inactive)
GI50 [22]: 39 µM (inactive)
GI50 [23]: 21.3 µM (inactive)
GI50 [24]: 20.1 µM (inactive)
GI50 [25]: 4.62 µM (inactive)
GI50 [26]: 13.9 µM (inactive)
GI50 [27]: 31.7 µM (inactive)
GI50 [28]: 17 µM (inactive)
GI50 [29]: 10.6 µM (inactive)
GI50 [30]: 15.4 µM (inactive)
GI50 [31]: 3.86 µM (inactive)
GI50 [32]: 14.8 µM (inactive)
GI50 [33]: 19.1 µM (inactive)
GI50 [34]: 67.5 µM (inactive)
GI50 [35]: 18 µM (inactive)
GI50 [36]: 21 µM (inactive)
GI50 [37]: 3.08 µM (inactive)
GI50 [38]: 12.8 µM (inactive)
GI50 [39]: 36.4 µM (inactive)
GI50 [40]: 17.9 µM (inactive)
GI50 [41]: 12 µM (inactive)
GI50 [42]: 20.8 µM (inactive)
GI50 [43]: 16.8 µM (inactive)
GI50 [44]: 12.4 µM (inactive)
GI50 [45]: 17.7 µM (inactive)
GI50 [46]: 15 µM (inactive)
GI50 [47]: 16.7 µM (inactive)
GI50 [48]: 18.8 µM (inactive)
GI50 [49]: 17.1 µM (inactive)
GI50 [50]: 17.7 µM (inactive)
GI50 [51]: 19.8 µM (inactive)
GI50 [52]: 19 µM (inactive)
GI50 [53]: 14 µM
GI50 [54]: 26.1 µM (inactive)
GI50 [55]: 29.6 µM (inactive)
GI50 [56]: 18.6 µM (inactive)
GI50 [57]: 25.9 µM (inactive)
GI50 [58]: 14.9 µM (inactive)

CCOC(=O)C1CCCCN1C(=O)Cc1c[nH]c2ccccc12 (centres undefined)
GI50 [1]: 79.6 µM (inactive)
GI50 [2]: 34.4 µM (inactive)
GI50 [3]: 24.8 µM (inactive)
GI50 [4]: 59.2 µM (inactive)
GI50 [5]: > 100 µM (inactive)
GI50 [6]: 52.6 µM (inactive)
GI50 [7]: 77.8 µM (inactive)
GI50 [8]: 31.7 µM (inactive)
GI50 [9]: 27.4 µM (inactive)
GI50 [10]: 69.7 µM (inactive)
GI50 [12]: > 100 µM (inactive)
GI50 [13]: > 100 µM (inactive)
GI50 [14]: 79.3 µM (inactive)
GI50 [15]: 45.2 µM (inactive)
GI50 [17]: > 100 µM (inactive)
GI50 [59]: > 100 µM (inactive)
GI50 [18]: 45.4 µM (inactive)
GI50 [19]: 63.4 µM (inactive)
GI50 [20]: 37.5 µM (inactive)
GI50 [21]: 16 µM (inactive)
GI50 [22]: 40 µM (inactive)
GI50 [23]: > 100 µM (inactive)
GI50 [24]: 37 µM (inactive)
GI50 [25]: 68.9 µM (inactive)
GI50 [26]: 94.8 µM (inactive)
GI50 [27]: 69.7 µM (inactive)
GI50 [28]: 67.3 µM (inactive)
GI50 [29]: 57.7 µM (inactive)
GI50 [30]: 72.9 µM (inactive)
GI50 [31]: 59.4 µM (inactive)
GI50 [32]: 80.2 µM (inactive)
GI50 [33]: 33.9 µM (inactive)
GI50 [34]: > 100 µM (inactive)
GI50 [35]: 66.2 µM (inactive)
GI50 [36]: 20 µM (inactive)
GI50 [37]: 31.3 µM (inactive)
GI50 [38]: 76.9 µM (inactive)
GI50 [39]: > 100 µM (inactive)
GI50 [41]: 61.9 µM (inactive)
GI50 [42]: 41.3 µM (inactive)
GI50 [43]: > 100 µM (inactive)
GI50 [44]: 31.4 µM (inactive)
GI50 [45]: 71.4 µM (inactive)
GI50 [46]: > 100 µM (inactive)
GI50 [47]: 42.5 µM (inactive)
GI50 [48]: 49.8 µM (inactive)
GI50 [49]: 33.9 µM (inactive)
GI50 [50]: > 100 µM (inactive)
GI50 [51]: 94.8 µM (inactive)
GI50 [52]: 84.1 µM (inactive)
GI50 [53]: 87.7 µM
GI50 [54]: 42.4 µM (inactive)
GI50 [55]: 55.2 µM (inactive)
GI50 [56]: 66.2 µM (inactive)
GI50 [57]: 87.9 µM (inactive)
GI50 [58]: 57.4 µM (inactive)

Source: ChEMBL document CHEMBL1201862, “PubChem BioAssay data set” (2004)
